Measurements from patent US8188273B2, “Insecticidal (1,3,5)-triazinyl phenyl hydrazones” (Dow AgroSciences, LLC., priority 2007, dated 2012).

What was measured:
[1] = tested on: corn earworm (Helicoverpa zea); assay: Insecticidal test on treated lepidopteran diet, corn earworm; format: in vivo; conditions: 120 h; second-instar larvae on treated diet, 8 wells; dose of 50 mg/cm^2 [sic] (2000 ppm, 50 μL); dead insects counted 5 days after treatment; read-out: AVG HELIZE 50 (percent control, corn ear worm)
Procedure: (§1) The compounds identified in Table 1 were prepared according to the previous methods and were tested against beet armyworm and corn earworm as follows:
(§2) Insecticidal Test for Corn Earworm (Helicoverpa zea) and Beet Armyworm (Spodoptera exigua).
(§3) To prepare test solution, the test compound was formulated at 2000 ppm solution as 4 mg/2 mL of 9 acetone:1 tap water. 50 μL of the 2000 ppm (equivalent to 50 μg/cm^2 dose on diet surface area) test solution was pipetted upon the surface of 1 mL of lepidopteran diet (Southland Multi-Species Lepidopteran Diet) contained in each of eight wells per insect species (one well=1 replication). A second-instar corn earworm and beet armyworm was placed upon the treated diet in each well once the solvent had air-dried. Trays containing the treated diet and larvae were covered and then held in a growth chamber at 25° C., 50-55% RH, and 16 hr light:8 hr dark for 5 days. Observation were conducted 5 days after treatment and infestation. The number of dead insects of 8 per species per treatment was then determined and the results are given in Table 1 as a percent control at a dose of […].
(§4) Keys to the table: Mass spectral data were obtained using liquid chromatography mass spectroscopy (LC-MS). The masses are detected using electrospray ionization (ESI) and reported as Mol Ion (M+H, M−H); AVG LAPHEG 50 refers to activity against beet army worm (Spodoptera exigua) as defined above; AVG HELIZE 50 refers to activity against corn ear worm (Helicoverpa zea) as described above.

[2] = tested on: beet armyworm (Spodoptera exigua); assay: Insecticidal test on treated lepidopteran diet, beet armyworm; format: in vivo; conditions: 120 h, second-instar larvae on treated diet, 8 wells, dose of 50 mg/cm^2 [sic] (2000 ppm, 50 μL), dead insects counted 5 days after treatment, read-out: AVG LAPHEG 50 (percent control, beet army worm)
Procedure: as §1, §2, §3, §4

Row | SMILES | pest or weed control at 2000 µg/mL [1] [%] | pest or weed control at 2000 µg/mL [2] [%]
1 | CC1CN(c2nc(N/N=C/c3cc(F)cc(C(F)(F)F)c3)nc(Nc3ccc(F)c(C(F)(F)F)c3)n2)CC(C)O1 (centres unmarked) [Compound 47] | 75 | 100
2 | CCOCCN(CCOCC)c1nc(N/N=C/c2ccc(OC(F)(F)F)cc2)nc(Nc2ccc(F)c(C(F)(F)F)c2)n1 [Compound 48] | 0 | 13
3 | CC1CN(c2nc(N/N=C/c3ccc(OC(F)(F)C(F)F)cc3)nc(Nc3ccc(F)c(C(F)(F)F)c3)n2)CC(C)O1 (centres unmarked) [Compound 49] | 100 | 100
4 | FC(F)(F)Oc1ccc(/C=N/Nc2nc(NCCN3CCOCC3)nc(Nc3cccc(C(F)(F)F)c3)n2)cc1 [Compound 50] | 100 | 100
5 | Fc1ccc(Nc2nc(NCc3ccc(Cl)nc3)nc(N/N=C/c3cccc(OC(F)(F)C(F)F)c3)n2)cc1C(F)(F)F [Compound 51] | 100 | 100
6 | Fc1ccc(Nc2nc(N/N=C/c3ccc(OC(F)(F)C(F)F)cc3)nc(N3CCOCC3)n2)cc1C(F)(F)F [Compound 52] | 100 | 100
7 | Fc1ccc(Nc2nc(N/N=C/c3cccc(OC(F)(F)C(F)F)c3)nc(N3CCOCC3)n2)cc1C(F)(F)F [Compound 53] | 100 | 100
8 | Fc1ccc(Nc2nc(N/N=C/c3ccc(OC(F)(F)F)cc3)nc(N3CCOCC3)n2)cc1C(F)(F)F [Compound 54] | 100 | 100
9 | Cc1cnc(CNc2nc(N/N=C/c3cccc(OC(F)(F)C(F)F)c3)nc(Nc3ccc(F)c(C(F)(F)F)c3)n2)cn1 [Compound 56] | 63 | 100
10 | Cc1cnc(CNc2nc(N/N=C/c3ccc(OC(F)(F)F)cc3)nc(Nc3ccc(F)c(C(F)(F)F)c3)n2)cn1 [Compound 57] | 100 | 100
11 | CONc1nc(N/N=C/c2cccc(C(F)(F)F)c2)nc(Nc2ccc(OC(F)(F)F)cc2)n1 [Compound 58] | 100 | 100
12 | Fc1ccc(Nc2nc(NCc3ccc(Cl)nc3)nc(N/N=C/c3cccc(OC(F)(F)F)c3)n2)cc1C(F)(F)F [Compound 60] | 100 | 100
13 | FC(F)C(F)(F)Oc1cccc(/C=N/Nc2nc(Nc3ccc(OC(F)(F)F)cc3)nc(N3CCOCC3)n2)c1 [Compound 61] | 100 | 100
14 | FC(F)(F)Oc1ccc(/C=N/Nc2nc(Nc3cccc(C(F)(F)F)c3)nc(N3CCOCC3)n2)cc1 [Compound 62] | 100 | 100
15 | Fc1ccc(Nc2nc(NCc3ccc(Cl)nc3)nc(N/N=C/c3ccc(OC(F)(F)C(F)F)cc3)n2)cc1C(F)(F)F [Compound 63] | 100 | 100
16 | Fc1ccc(Nc2nc(NCc3ccncc3)nc(N/N=C/c3ccc(OC(F)(F)F)cc3)n2)cc1C(F)(F)F [Compound 64] | 100 | 100
17 | Fc1ccc(Nc2nc(NCc3ccc(Cl)nc3)nc(N/N=C/c3ccc(C(F)(F)F)cc3)n2)cc1C(F)(F)F [Compound 65] | 100 | 100
18 | COc1cccc(/C=N/Nc2nc(NCc3ccc(Cl)nc3)nc(Nc3ccc(F)c(C(F)(F)F)c3)n2)c1 [Compound 66] | 100 | 100
19 | Fc1ccc(Nc2nc(NCc3ccc(Cl)nc3)nc(N/N=C/c3cc(Cl)cc(Cl)c3)n2)cc1C(F)(F)F [Compound 67] | 100 | 100

Row | SMILES | pest or weed control at 2000 µg/mL [1] [%] | pest or weed control at 2000 µg/mL [2] [%]
20 | Fc1ccc(Nc2nc(NCc3ccc(Cl)nc3)nc(N/N=C/c3ccc(Cl)cc3)n2)cc1C(F)(F)F [Compound 68] | 100 | 100
21 | Fc1ccccc1/C=N/Nc1nc(NCc2ccc(Cl)nc2)nc(Nc2ccc(F)c(C(F)(F)F)c2)n1 [Compound 69] | 100 | 100
22 | Fc1ccc(Nc2nc(NCc3ccc(Cl)nc3)nc(N/N=C/c3cccc(Br)c3)n2)cc1C(F)(F)F [Compound 70] | 100 | 100
23 | Fc1ccc(Nc2nc(NCc3ccc(Cl)nc3)nc(N/N=C/c3ccc(Cl)c(Cl)c3)n2)cc1C(F)(F)F [Compound 71] | 100 | 100
24 | Fc1ccc(Nc2nc(NCc3ccc(Cl)nc3)nc(N/N=C/c3ccccc3Cl)n2)cc1C(F)(F)F [Compound 72] | 25 | 0
25 | Fc1cccc(/C=N/Nc2nc(NCc3ccc(Cl)nc3)nc(Nc3ccc(F)c(C(F)(F)F)c3)n2)c1 [Compound 73] | 100 | 100
26 | Fc1ccc(Nc2nc(NCc3ccc(Cl)nc3)nc(N/N=C/c3cccc(C(F)(F)F)c3)n2)cc1C(F)(F)F [Compound 74] | 100 | 100
27 | Fc1ccc(Nc2nc(NCc3ccc(Cl)nc3)nc(N/N=C/c3cccc(Cl)c3)n2)cc1C(F)(F)F [Compound 75] | 100 | 100
28 | Fc1ccc(/C=N/Nc2nc(NCc3ccc(Cl)nc3)nc(Nc3ccc(F)c(C(F)(F)F)c3)n2)cc1 [Compound 76] | 100 | 100
29 | Fc1ccc(Nc2nc(NCc3ccc(C(F)(F)F)nc3)nc(N/N=C/c3ccc(OC(F)(F)F)cc3)n2)cc1C(F)(F)F [Compound 77] | 100 | 100
30 | Fc1ccc(Nc2nc(N/N=C/c3cccc(OC(F)(F)C(F)F)c3)nc(N3CCOCC3)n2)cc1F [Compound 78] | 88 | 13
31 | CCCOc1ccc(Nc2nc(N/N=C/c3cccc(OC(F)(F)C(F)F)c3)nc(N3CCOCC3)n2)cc1 [Compound 79] | 100 | 13
32 | Fc1ccc(Nc2nc(NCCc3cccnc3)nc(N/N=C/c3ccc(OC(F)(F)F)cc3)n2)cc1C(F)(F)F [Compound 80] | 100 | 100
33 | Fc1cc(C(F)(F)F)ccc1Nc1nc(N/N=C/c2cccc(OC(F)(F)C(F)F)c2)nc(N2CCOCC2)n1 [Compound 81] | 100 | 100
34 | COc1ccc(CNc2nc(N/N=C/c3ccc(OC(F)(F)F)cc3)nc(Nc3ccc(F)c(C(F)(F)F)c3)n2)cn1 [Compound 82] | 100 | 100
35 | FC(F)C(F)(F)Oc1cccc(/C=N/Nc2nc(Nc3cccc(OC(F)(F)F)c3)nc(N3CCOCC3)n2)c1 [Compound 83] | 100 | 100
36 | FC(F)C(F)(F)Oc1cccc(Nc2nc(N/N=C/c3ccc(C(F)(F)F)cc3)nc(N3CCOCC3)n2)c1 [Compound 84] | 75 | 25
37 | FC(F)C(F)(F)Oc1cccc(Nc2nc(NCc3ccc(Cl)nc3)nc(N/N=C/c3ccc(C(F)(F)F)cc3)n2)c1 [Compound 85] | 100 | 100
